From patent publication US10766869B2, “Triazoles for the treatment of demyelinating dieases” (Vertex Pharmaceuticals Incorporated, priority 2015, dated 2020)
Read-outs that look alike come from different tables or passages of the source.

Tested on: primary rat mixed cortical cells
Experiment: In vitro myelination assay (MBP positive myelin strands, fold myelin pixels above background)
Format: cell-based
Details: Rattus norvegicus; for fold induction at 1 µM: 1.0 μM compound; for fold induction at 10 µM: 10.0 μM compound
Procedure, shortened: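 Read-out is total MBP-positive myelin strand pixels per well, detected by custom ridge-tracing software and reported as fold over untreated baseline. Primary P1 rat mixed cortical cells received compound (1.0 or 10.0 μM) for 14 days, with medium half-replaced on days 6 and 10. Standard deviation was taken across all replicates.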

[1] = read-out: Fold myelin pixels above background relative to baseline of no added compound
[2] = relative to baseline of no added compound, read-out: Fold myelin pixels above background, 1.0 μM
[3] = relative to baseline of no added compound, read-out: Fold myelin pixels above background, 10.0 μM
[4] = relative to baseline of no added compound, read-out: Fold myelin pixels above background

Row | Compound | fold induction at 1 µM [2] | fold induction at 10 µM [3] | fold induction at 1 µM [4] | fold induction at 10 µM [4] | other results
1 | Cc1cc(Nc2ncn(-c3cc(F)cc(F)c3)n2)cc(N2CCCC2CN2CCOCC2)c1 (centres unmarked) [Compound 1012, 1-(3,5-difluorophenyl)-N-[3-methyl-5-[2-(morpholinomethyl)pyrrolidin-1-yl]phenyl]-1,2,4-triazol-3-amine] | – | – | – | – | fold induction at 1 µM [1]: 1 to 10; fold induction at 10 µM [1]: ≤ 1
2 | Cc1cc(Nc2ncn(-c3cc(F)cc(F)c3)n2)cc(N2CCN(CC(=O)O)CC2)c1 [Compound 125, 2-[4-[3-[[1-(3,5-difluorophenyl)-1,2,4-triazol-3-yl]amino]-5-methyl-phenyl]piperazin-1-yl]acetic acid] | 10 to 100 | 1 to 10 | – | – | –
3 | Cc1cc(Nc2ncn(-c3cc(F)cc(F)c3)n2)cc(N2CCCC(N3CCCC3=O)C2)c1 (centres unmarked) [Compound 114, 1-[1-[3-[[1-(3,5-difluorophenyl)-1,2,4-triazol-3-yl]amino]-5-methyl-phenyl]-3-piperidyl]pyrrolidin-2-one] | 10 to 100 | 10 to 100 | – | – | –
4 | Cc1cc(Nc2ncn(-c3ccc(F)c(F)c3)n2)cc(N2CC(N3CCOCC3)C2)c1 [Compound 720, 1-(3,4-difluorophenyl)-N-[3-methyl-5-(3-morpholinoazetidin-1-yl)phenyl]-1,2,4-triazol-3-amine] | – | – | 1 to 10 | 10 to 100 | –
5 | Fc1cc(Nc2ncn(-c3cccc(C(F)(F)F)c3)n2)cc(N2CCOCC2)c1 [Compound 181, N-(3-fluoro-5-morpholino-phenyl)-1-[3-(trifluoromethyl)phenyl]-1,2,4-triazol-3-amine] | ≤ 1 | 100 to 1000 | – | – | –
6 | FC(F)(F)c1cc(Nc2ncn(-c3ccccn3)n2)nc(N2CCN(C3COC3)CC2)c1 [Compound 548, 6-[4-(oxetan-3-yl)piperazin-1-yl]-N-[1-(2-pyridyl)-1,2,4-triazol-3-yl]-4-(trifluoromethyl)pyridin-2-amine] | – | – | 1 to 10 | 1 to 10 | –
7 | Cc1cc(Nc2ncn(-c3cc(F)cc(F)c3)n2)cc([C@H]2CN(C3COC3)CCO2)c1 (single isomer, unassigned) [Compound 623] | – | – | 10 to 100 | 1 to 10 | –
8 | CN1CCCN(c2cc(F)cc(Nc3ncn(-c4ccc(F)cc4F)n3)c2)CC1 [Compound 28, 1-(2,4-difluorophenyl)-N-[3-fluoro-5-(4-methyl-1,4-diazepan-1-yl)phenyl]-1,2,4-triazol-3-amine] | ≤ 1 | ≤ 1 | – | – | –
9 | CCc1cc(Nc2ncn(-c3cccc(C(F)(F)F)c3)n2)cc(N2CCN(C3COC3)CC2)c1 [Compound 218, N-[3-ethyl-5-[4-(oxetan-3-yl)piperazin-1-yl]phenyl]-1-[3-(trifluoromethyl)phenyl]-1,2,4-triazol-3-amine] | 100 to 1000 | ≤ 1 | – | – | –
10 | FC(F)c1cc(Nc2ncn(-c3ccccc3)n2)cc(N2CCOCC2)c1 [Compound 392, N-[3-(difluoromethyl)-5-morpholino-phenyl]-1-phenyl-1,2,4-triazol-3-amine] | – | – | 100 to 1000 | 10 to 100 | –
11 | Cc1cc(Nc2ncn(-c3cccc(Cl)c3)n2)cc(N2CCN(C3COC3)CC2)c1 [Compound 397, 1-(3-chlorophenyl)-N-[3-methyl-5-[4-(oxetan-3-yl)piperazin-1-yl]phenyl]-1,2,4-triazol-3-amine] | – | – | 1000 to 10000 | 100 to 1000 | –
12 | Cc1cc(Nc2ncn(-c3ccccc3C#N)n2)cc(N2CCCC2)c1 [Compound 212, 2-[3-(3-methyl-5-pyrrolidin-1-yl-anilino)-1,2,4-triazol-1-yl]benzonitrile] | ≤ 1 | ≤ 1 | – | – | –
13 | COCC1CN(c2cc(C)cc(Nc3ncn(-c4cc(F)cc(F)c4)n3)c2)C1 [Compound 116, 1-(3,5-difluorophenyl)-N-[3-[3-(methoxymethyl)azetidin-1-yl]-5-methyl-phenyl]-1,2,4-triazol-3-amine] | ≤ 1 | ≤ 1 | – | – | –
14 | COc1cc(Nc2ncn(-c3cc(F)cc(F)c3)n2)cc(N2CCN(C3COC3)CC2)c1 [Compound 310, 1-(3,5-difluorophenyl)-N-[3-methoxy-5-[4-(oxetan-3-yl)piperazin-1-yl]phenyl]-1,2,4-triazol-3-amine] | 1000 to 10000 | 100 to 1000 | – | – | –
15 | Cc1cc(Nc2ncn(-c3ccccn3)n2)cc(N2CCCN(C3COC3)CC2)c1 [Compound 609, N-[3-methyl-5-[4-(oxetan-3-yl)-1,4-diazepan-1-yl]phenyl]-1-(2-pyridyl)-1,2,4-triazol-3-amine] | – | – | 100 to 1000 | 100 to 1000 | –
16 | Cc1cc(Nc2ncn(-c3cc(F)cc(F)c3)n2)cc(N2CCN(CC(C)O)CC2)c1 (centres unmarked) [Compound 995, 1-[4-[3-[[1-(3,5-difluorophenyl)-1,2,4-triazol-3-yl]amino]-5-methyl-phenyl]piperazin-1-yl]propan-2-ol] | – | – | – | – | fold induction at 1 µM [1]: 10 to 100; fold induction at 10 µM [1]: ≤ 1

Row | Compound | fold induction at 1 µM [2] | fold induction at 10 µM [3] | fold induction at 1 µM [4] | fold induction at 10 µM [4] | other results
17 | CC(C)c1cc(Nc2ncn(-c3ccncn3)n2)cc(N2CCN(C3COC3)CC2)c1 [Compound 511, N-[3-isopropyl-5-[4-(oxetan-3-yl)piperazin-1-yl]phenyl]-1-pyrimidin-4-yl-1,2,4-triazol-3-amine] | – | – | 100 to 1000 | 100 to 1000 | –
18 | N#Cc1cc(Nc2ncn(-c3cc(F)cc(F)c3)n2)cc(N2CCOCC2)c1 [Compound 835, 3-[[1-(3,5-difluorophenyl)-1,2,4-triazol-3-yl]amino]-5-morpholino-benzonitrile] | – | – | – | – | fold induction at 1 µM [1]: 1 to 10; fold induction at 10 µM [1]: 10 to 100
19 | Cc1cc(Nc2ncn(-c3cc(F)cc(F)c3)n2)cc(N2CC(N3CC4CC3CO4)C2)c1 (centres unmarked) [Compound 788, 1-(3,5-difluorophenyl)-N-[3-methyl-5-[3-(2-oxa-5-azabicyclo[2.2.1]heptan-5-yl)azetidin-1-yl]phenyl]-1,2,4-triazol-3-amine] | – | – | – | – | fold induction at 1 µM [1]: 10 to 100; fold induction at 10 µM [1]: 1 to 10
20 | Clc1cc(Nc2ncn(-c3ccccn3)n2)cc(N2CC(N3CCOCC3)C2)c1 [Compound 785, N-[3-chloro-5-(3-morpholinoazetidin-1-yl)phenyl]-1-(2-pyridyl)-1,2,4-triazol-3-amine] | – | – | 10 to 100 | 100 to 1000 | –
21 | Cc1cc(N2CCOCC2)cc(Nc2ncn(-c3ccccn3)n2)c1F [Compound 307, N-(2-fluoro-3-methyl-5-morpholino-phenyl)-1-(2-pyridyl)-1,2,4-triazol-3-amine] | 1 to 10 | 10 to 100 | – | – | –
22 | Cc1cc(Nc2ncn(-c3cc(F)cc(F)c3)n2)cc(N2CCN(C(=O)OCC(F)(F)F)CC2)c1 [Compound 350, 2,2,2-trifluoroethyl 4-[3-[[1-(3,5-difluorophenyl)-1,2,4-triazol-3-yl]amino]-5-methyl-phenyl]piperazine-1-carboxylate] | ≤ 1 | ≤ 1 | – | – | –
23 | Fc1cc(F)cc(-n2cnc(Nc3cc(N4CC(N5CCOCC5)C4)cc(N4CC(N5CCOCC5)C4)c3)n2)c1 [Compound 868, N-[3,5-bis(3-morpholinoazetidin-1-yl)phenyl]-1-(3,5-difluorophenyl)-1,2,4-triazol-3-amine] | – | – | – | – | fold induction at 1 µM [1]: 1 to 10; fold induction at 10 µM [1]: 1 to 10
24 | Cc1cc(Nc2ncn(-c3cc(F)cc(F)c3)n2)cc(N2CC(CN3CCOCC3)C2)c1 [Compound 866, 1-(3,5-difluorophenyl)-N-[3-methyl-5-[3-(morpholinomethyl)azetidin-1-yl]phenyl]-1,2,4-triazol-3-amine] | – | – | – | – | fold induction at 1 µM [1]: 1 to 10; fold induction at 10 µM [1]: 10 to 100
25 | Cc1cc(Nc2ncn(-c3ccccc3)n2)cc(N2CCOCC2)c1 [Compound 45, N-(3-methyl-5-morpholino-phenyl)-1-phenyl-1,2,4-triazol-3-amine] | 1000 to 10000 | 100 to 1000 | – | – | –
26 | Cc1cc(Nc2ncn(-c3cc(F)cc(F)c3)n2)cc(N2CCN(C)C(C)C2)c1 (centres unmarked) [Compound 119, 1-(3,5-difluorophenyl)-N-[3-(3,4-dimethylpiperazin-1-yl)-5-methyl-phenyl]-1,2,4-triazol-3-amine] | 100 to 1000 | 10 to 100 | – | – | –
27 | Fc1cc(F)cc(-n2cnc(Nc3cc(N4CCOCC4)cc(C(F)(F)F)c3)n2)c1 [Compound 475, 1-(3,5-difluorophenyl)-N-[3-morpholino-5-(trifluoromethyl)phenyl]-1,2,4-triazol-3-amine] | – | – | 100 to 1000 | 1000 to 10000 | –
28 | Cc1cc(Nc2ncn(-c3ccc(F)c(F)c3)n2)cc(N2CCOCC2)c1 [Compound 43, 1-(3,4-difluorophenyl)-N-(3-methyl-5-morpholino-phenyl)-1,2,4-triazol-3-amine] | 100 to 1000 | 100 to 1000 | – | – | –
29 | CCc1cc(Nc2ncn(-c3ccc(F)cc3)n2)cc(N2CCN(C3COC3)CC2)c1 [Compound 14, N-[3-ethyl-5-[4-(oxetan-3-yl)piperazin-1-yl]phenyl]-1-(4-fluorophenyl)-1,2,4-triazol-3-amine] | 1000 to 10000 | ≤ 1 | – | – | –
30 | Cc1cc(Nc2ncn(-c3cc(F)cc(C(F)(F)F)c3)n2)cc(N2CCN(C3COC3)CC2)c1 [Compound 757, 1-[3-fluoro-5-(trifluoromethyl)phenyl]-N-[3-methyl-5-[4-(oxetan-3-yl)piperazin-1-yl]phenyl]-1,2,4-triazol-3-amine] | – | – | 10 to 100 | 10 to 100 | –
31 | Cc1cc(Nc2ncn(-c3ccc(F)c(F)c3)n2)cc(N2CCN(C)CC2)c1 [Compound 317, 1-(3,4-difluorophenyl)-N-[3-methyl-5-(4-methylpiperazin-1-yl)phenyl]-1,2,4-triazol-3-amine] | 100 to 1000 | 10 to 100 | – | – | –
